Each structure is given as a SMILES string. Where a name gives a salt, the structure may show the parent alone.

This is an account of results in patent US12492187B2, “Factor XI activation inhibitors” (Merck Sharp & Dohme LLC, priority 2020, dated 2025).

For this assay, the target named is T1, Human coagulation factor (F)XI (Homo sapiens, UniProt P03951).
T1 construct: purchased Haematologic Technologies Inc. (FXI); Enzyme Research Laboratories (FXIIa) HCXI-150 (FXI); HFXIIa (FXIIa)
T1 sequence (P03951 19-625): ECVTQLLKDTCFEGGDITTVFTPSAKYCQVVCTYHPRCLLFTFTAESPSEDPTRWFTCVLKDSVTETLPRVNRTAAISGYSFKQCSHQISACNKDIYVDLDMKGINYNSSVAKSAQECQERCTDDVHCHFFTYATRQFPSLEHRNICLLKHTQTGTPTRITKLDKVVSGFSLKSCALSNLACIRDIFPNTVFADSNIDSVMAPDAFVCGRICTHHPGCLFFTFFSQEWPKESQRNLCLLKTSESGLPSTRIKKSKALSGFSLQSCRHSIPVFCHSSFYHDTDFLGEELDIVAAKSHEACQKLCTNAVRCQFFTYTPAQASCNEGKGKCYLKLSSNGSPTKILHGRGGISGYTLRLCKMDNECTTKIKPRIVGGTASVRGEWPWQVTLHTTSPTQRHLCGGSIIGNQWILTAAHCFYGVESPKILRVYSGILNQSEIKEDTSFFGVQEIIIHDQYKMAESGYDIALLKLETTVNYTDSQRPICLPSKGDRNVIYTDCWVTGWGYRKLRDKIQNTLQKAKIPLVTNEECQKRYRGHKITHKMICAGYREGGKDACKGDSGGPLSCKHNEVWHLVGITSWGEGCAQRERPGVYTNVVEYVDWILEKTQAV
In words: Inhibition of FXIIa mediated activation of FXI (activation of human Factor XI to XIa by human Factor α-XIIa). The assay is classed as biochemical. Particulars: human FXI pre-incubated with compound 30 min at 22° C., activation by human FXIIa 60 min, z-GPR-AFC substrate, fluorescence 405/510 nm, 4 parameter logistic fit; read-out: Inhibition of FXIIa meditated activation of FXI. How it is done:
Inhibition of FXIIa Mediated Activation of FXI
Activation of Human Factor XI to XIa by Human Factor α-XIIa
Assay was performed in 50 mM HEPES, 150 mM NaCl, 5 mM CaCl2, 0.1% PEG-8000, pH 7.4 buffer in black, flat-bottom, polystyrene microplates (Corning, Cat #3573). Serial dilutions (10-point, 3.333-fold) of the test compounds delivered as 10 mM DMSO stocks were prepared in the Labcyte Echo-qualified PP 384 well microplates (Labcyte, Cat #P-05525). Human coagulation factor (F)XI (Haematologic Technologies Inc., Cat #HCXI-150, concentration 46 nM, 19.5 uL) was pre-incubated with 0.5 uL of the test compounds for 30 min at 22° C. The activation was initiated by addition of 10 uL of human coagulation factor (F)XIIa (Enzyme Research Laboratories, Cat #HFXIIa, concentration 30 nM) and reaction proceeded for 60 min at 22° C., after which it was quenched by addition of a selective inhibitor of FXIIa (Compound 54 in WO2018093695) concentration 600 uM in DMSO, 1 uL). 10 min after the quench, 29 uL of z-GPR-AFC substrate (Sigma, Cat #C0980-10MG, concentration 200 uM) was added into each well and the detection reaction proceeded for 60 min at 22° C. Fluorescence at 405/510 nm was measured in end-point mode using an Envision plate-reader (Perkin Elmer). IDBS Activity Base XE (ABase) analysis using 4 parameter logistic fit was performed to determine Minimum, Maximum, EC50, and Slope Factor for each compound.
`Cc1cnc(C(=O)N2CCC(C#N)(c3ccccc3)CC2)cc1C(=O)N1CC[C@@H]2c3ccccc3O[C@@H]2C1` (racemic) [Example 2, 1-(4-((4aR,9aS)-1,2,3,4,4a,9a-hexahydrobenzofuro[2,3-c]pyridine-2-carbonyl)-5-methylpicolinoyl)-4-phenylpiperidine-4-carbonitrile and 1-(4-((4aS,9aR)-1,2,3,4,4a,9a-hexahydrobenzofuro[2,3-c]pyridine-2-carbonyl)-5-methylpicolinoyl)-4-phenylpiperidine-4-carbonitrile]: the EC50 came out at 39.4 nM. The figure for `Cc1cnc(C(=O)N2CCC(C#N)(c3ccccc3)CC2)cc1C(=O)N1CCC(N2CCC(F)(F)C2)CC1` [Example 1, 1-(4-(4-(3,3-difluoropyrrolidin-1-yl)piperidine-1-carbonyl)-5-methylpicolinoyl)-4-phenylpiperidine-4-carbonitrile, 2,2,2-trifluoroacetate salt] is 42 nM. The figure for `Cc1cnc(C(=O)N2CCC(C#N)(c3ccccc3)CC2)cc1C(=O)N1CCC(C)(N2CCC(F)(F)C2)CC1` [Example 3, 1-(4-(4-(3,3-difluoropyrrolidin-1-yl)-4-methylpiperidine-1-carbonyl)-5-methylpicolinoyl)-4-phenylpiperidine-4-carbonitrile] is 61.8 nM. Then `Cc1cnc(C(=O)N2CCC(C#N)(c3ccccc3)CC2)cc1C(=O)N1CC(c2cccc(F)c2)C1` [Example 4, 1-(4-(3-(3-fluorophenyl)azetidine-1-carbonyl)-5-methylpicolinoy1)-4-phenylpiperidine-4-carbonitrile], with 197 nM; and `Cc1cnc(C(=O)N2CCC(C#N)(c3ccccc3)CC2)cc1C(=O)N1CCC(c2ccccc2)CC1` [Example 5, 1-(5-methyl-4-(4-phenylpiperidine-1-carbonyl)picolinoyl)-4-phenylpiperidine-4-carbonitrile], with 30.4 nM. For the compound `Cc1cnc(C(=O)N2CCC(C#N)(c3ccccc3)CC2)cc1C(=O)N1CCC(CCc2ccccc2)CC1` [Example 6, 1-(5-methyl-4-(4-phenethylpiperidine-1-carbonyl)picolinoyl)-4-phenylpiperidine-4-carbonitrile], the EC50 was 150 nM. Then `Cc1cnc(C(=O)N2CCC(C#N)(c3ccccc3)CC2)cc1C(=O)N(CCC1(O)CCCC1)C1CCC1` [Example 7, 2-(4-cyano-4-phenylpiperidine-1-carbonyl)-N-cyclobutyl-N-(2-(1-hydroxycyclopentyl)ethyl)-5-methylisonicotinamide], with 43.5 nM; and `Cc1cnc(C(=O)N2CCC(C#N)(c3ccccc3)CC2)cc1C(=O)N1CC(c2ccccc2)C1` [Example 8, 1-(5-methyl-4-(3-phenylazetidine-1-carbonyl)picolinoyl)-4-phenylpiperidine-4-carbonitrile], with 119 nM; and `Cc1cnc(C(=O)N2CCC(C#N)(c3ccccc3)CC2)cc1C(=O)N1CC(c2ccc(F)cc2)C1` [Example 9, 1-(4-(3-(4-fluorophenyl)azetidine-1-carbonyl)-5-methylpicolinoyl)-4-phenylpiperidine-4-carbonitrile], with 107 nM. Then `Cc1cnc(C(=O)N2CCC(C#N)(c3ccccc3)CC2)cc1C(=O)N1CCC(Cc2ccccc2)CC1` [Example 10, 1-(4-(4-benzylpiperidine-1-carbonyl)-5-methylpicolinoyl)-4-phenylpiperidine-4-carbonitrile], with 74.1 nM. Take `Cc1cnc(C(=O)N2CCC(C#N)(c3ccccc3)CC2)cc1C(=O)N1CCN(C2CCCC2)C(=O)C1` [Example 11, 1-(4-(4-cyclopentyl-3-oxopiperazine-1-carbonyl)-5-methylpicolinoyl)-4-phenylpiperidine-4-carbonitrile]: the EC50 was 164 nM. Then `Cc1cnc(C(=O)N2CCC(C#N)(c3ccccc3)CC2)cc1C(=O)N1CC2CC(C1)C2(F)c1ccccc1` (stereo not drawn) [Example 12, 1-(4-(6-fluoro-6-phenyl-3-azabicyclo[3.1.1]heptane-3-carbonyl)-5-methylpicolinoyl)-4-phenylpiperidine-4-carbonitrile], with 137 nM.
